Data: ChEMBL document CHEMBL1201862, “PubChem BioAssay data set” (2004)
Calls of active or inactive are those of the source.

Tests used:
[1] = biological target: Beta-galactosidase (Escherichia coli, UniProt Q8VNN2); test: PubChem AID 485352; format: functional
[2] = inhibitors of intracellular T. cruzi replication, confirmation, NIH3T3 host cells, beta-gal luminescence (AID 2044); format: functional, cell-based;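 note: intracellular parasites grown in NIH/3T3 mouse fibroblasts as host cells; luminescent beta-galactosidase reporter signal from transgenic T. cruzi replicating inside host cells; inhibitors lower the luminescence signal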
[3] = biological target: T1, Type-1 angiotensin II receptor (Homo sapiens, UniProt P30556); test: AT1 receptor antagonists, dose response, selectivity assay for APJ receptor antagonist project, cell-based, uHTS hits (AID 463214); format: functional;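 note: antagonist potency against angiotensin II stimulated AT1 response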
T1 sequence (P30556 whole entry): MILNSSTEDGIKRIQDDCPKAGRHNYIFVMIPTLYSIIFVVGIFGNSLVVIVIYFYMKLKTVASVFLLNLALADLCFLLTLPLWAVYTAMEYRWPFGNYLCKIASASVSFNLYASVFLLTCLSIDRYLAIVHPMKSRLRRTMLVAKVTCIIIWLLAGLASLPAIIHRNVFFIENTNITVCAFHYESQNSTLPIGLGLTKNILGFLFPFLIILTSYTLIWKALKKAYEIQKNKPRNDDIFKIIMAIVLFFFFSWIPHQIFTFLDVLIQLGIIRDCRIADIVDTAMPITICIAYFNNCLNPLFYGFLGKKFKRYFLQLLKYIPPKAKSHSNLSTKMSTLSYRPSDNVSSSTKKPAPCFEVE

[4] = cytotoxicity toward NIH3T3 fibroblasts, dose response, counter-screen, cell-based, ATP luminescence, mouse fibroblasts (AID 2010); format: functional;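 note: cells exposed to compound for about 90 hours before reading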
[5] = cells
[6] = A Cell Based Secondary Assay To Explore Cytotoxicity of Compounds that Sensitize Mycobacterium Tuberculosis to Beta-Lactam Antibiotics.; format: functional
[7] = biological target: T2, Adenosylmethionine-8-amino-7-oxononanoate aminotransferase (Mycobacterium tuberculosis, UniProt P9WQ81); test: Mycobacterium tuberculosis BioA enzyme inhibitor Measured in Biochemical System Using Plate Reader - 2163-02_Inhibitor_Dose_CherryPick_Activity.; format: functional, Mycobacterium tuberculosis UT205
T2 sequence (P9WQ81 whole entry): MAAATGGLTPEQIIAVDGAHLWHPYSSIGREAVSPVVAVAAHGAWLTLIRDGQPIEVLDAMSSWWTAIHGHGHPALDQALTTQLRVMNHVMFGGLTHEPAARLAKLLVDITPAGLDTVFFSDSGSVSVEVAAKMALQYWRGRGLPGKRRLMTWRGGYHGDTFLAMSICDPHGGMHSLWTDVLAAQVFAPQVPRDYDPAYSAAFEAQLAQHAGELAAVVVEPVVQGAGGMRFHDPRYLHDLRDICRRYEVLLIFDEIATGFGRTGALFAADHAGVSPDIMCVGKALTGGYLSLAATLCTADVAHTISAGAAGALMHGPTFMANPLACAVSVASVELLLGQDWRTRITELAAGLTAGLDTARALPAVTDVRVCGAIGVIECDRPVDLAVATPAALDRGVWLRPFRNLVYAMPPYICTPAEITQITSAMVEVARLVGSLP

[8] = tested on: INS1; test: beta cell apoptosis inhibitors, cytokine rescue, dose response, luminescence, retest (AID 449756); format: functional, cell-based; conditions: Rattus norvegicus;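 note: cell death triggered by IL-1 beta plus TNF-alpha plus IFN-gamma mixture; protective hits raise ATP signal compared with cytokine alone wells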
[9] = THP-1 cell cytotoxicity, dose response, cytotoxicity control for Vif-APOBEC3G degradation inhibitor project, THP-1 cells (AID 1117359); format: functional; conditions: Human immunodeficiency virus 1, THP-1
[10] = biological target: Cytochrome P450 2D6 (Homo sapiens, UniProt P10635);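 note: CYP2D6 member of a cytochrome P450 panel assay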
[11] = tested on: Streptococcus sp. 'group A'; test: growth inhibition of control SK(-) GAS strain, dose response, counter-screen for streptokinase expression inhibitor project, luminescence, kanamycin, BacTiterGlo, confirmation (AID 1900); format: functional, organism-based
[12] = biological target: T3, Streptokinase A (Streptococcus pyogenes serotype M1, UniProt P10520); test: S. pyogenes streptokinase expression inhibitors, potency, dose response, plasminogen activation absorbance, OD405 (AID 1914); format: functional, Streptococcus pyogenes M1 GAS;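 note: secreted streptokinase activity via plasminogen activation per viability signal from cell pellet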
T3 sequence (P10520 whole entry): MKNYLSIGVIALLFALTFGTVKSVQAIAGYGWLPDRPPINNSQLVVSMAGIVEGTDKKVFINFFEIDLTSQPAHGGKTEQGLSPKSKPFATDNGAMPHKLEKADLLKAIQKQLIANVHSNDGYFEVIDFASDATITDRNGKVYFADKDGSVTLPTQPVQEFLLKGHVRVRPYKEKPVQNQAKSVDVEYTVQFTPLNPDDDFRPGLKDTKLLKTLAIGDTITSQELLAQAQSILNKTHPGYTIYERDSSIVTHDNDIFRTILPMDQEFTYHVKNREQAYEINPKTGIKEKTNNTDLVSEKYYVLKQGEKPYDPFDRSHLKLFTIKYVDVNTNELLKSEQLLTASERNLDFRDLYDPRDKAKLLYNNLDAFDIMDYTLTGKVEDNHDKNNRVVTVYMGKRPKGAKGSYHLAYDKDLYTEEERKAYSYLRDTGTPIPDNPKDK

[13] = tested on: Streptococcus; test: Group A Streptococcus viability loss, dose response, counter-screen for streptokinase expression inhibitor project, luminescence, BacTiterGlo (AID 1915); format: functional, organism-based;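 note: potency for reduction of bacterial viability or growth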
[14] = biological target: T4, Caspase-3 (Homo sapiens, UniProt P42574); format: functional
T4 sequence (P42574 whole entry): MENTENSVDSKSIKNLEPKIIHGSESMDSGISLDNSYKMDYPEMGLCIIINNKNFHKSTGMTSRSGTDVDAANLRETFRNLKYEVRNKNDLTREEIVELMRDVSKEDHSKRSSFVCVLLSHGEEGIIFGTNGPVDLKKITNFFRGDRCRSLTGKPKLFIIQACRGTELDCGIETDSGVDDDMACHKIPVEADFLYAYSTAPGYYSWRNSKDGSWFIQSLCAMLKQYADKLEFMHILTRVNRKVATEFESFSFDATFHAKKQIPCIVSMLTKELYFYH

[15] = biological target: T5, Sentrin-specific protease 7 (Homo sapiens, UniProt Q9BQF6); format: functional;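 note: Luminescence-based dose-response confirmation of ultra-high-throughput screening hits, measuring inhibition of SENP7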
T5 sequence (Q9BQF6 whole entry): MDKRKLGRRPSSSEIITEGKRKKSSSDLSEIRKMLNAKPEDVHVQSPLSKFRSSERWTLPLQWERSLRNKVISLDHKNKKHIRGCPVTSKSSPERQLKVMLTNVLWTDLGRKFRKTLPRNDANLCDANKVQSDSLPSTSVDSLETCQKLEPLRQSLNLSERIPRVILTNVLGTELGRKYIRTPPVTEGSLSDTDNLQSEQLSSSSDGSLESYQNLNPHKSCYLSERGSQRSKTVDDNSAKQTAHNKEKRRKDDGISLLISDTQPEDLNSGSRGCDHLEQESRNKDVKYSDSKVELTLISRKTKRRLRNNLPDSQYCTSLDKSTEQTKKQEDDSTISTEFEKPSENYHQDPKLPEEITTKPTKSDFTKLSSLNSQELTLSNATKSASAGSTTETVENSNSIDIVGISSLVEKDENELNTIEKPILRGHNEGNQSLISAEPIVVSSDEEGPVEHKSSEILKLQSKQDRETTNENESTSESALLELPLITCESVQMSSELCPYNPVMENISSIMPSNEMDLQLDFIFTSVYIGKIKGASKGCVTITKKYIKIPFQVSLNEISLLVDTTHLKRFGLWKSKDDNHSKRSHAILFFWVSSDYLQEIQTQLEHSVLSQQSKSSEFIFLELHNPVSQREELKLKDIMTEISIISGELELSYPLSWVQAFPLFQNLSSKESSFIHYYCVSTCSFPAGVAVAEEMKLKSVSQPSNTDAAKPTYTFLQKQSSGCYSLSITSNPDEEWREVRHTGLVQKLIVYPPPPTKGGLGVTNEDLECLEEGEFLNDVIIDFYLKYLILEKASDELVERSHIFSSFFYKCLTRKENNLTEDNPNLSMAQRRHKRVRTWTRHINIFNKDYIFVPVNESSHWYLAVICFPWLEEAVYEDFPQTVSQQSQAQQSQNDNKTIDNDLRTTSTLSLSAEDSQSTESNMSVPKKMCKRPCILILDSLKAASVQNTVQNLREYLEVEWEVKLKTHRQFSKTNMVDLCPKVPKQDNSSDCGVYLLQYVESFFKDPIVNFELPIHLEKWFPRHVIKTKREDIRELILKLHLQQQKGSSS

[16] = biological target: T6, Sentrin-specific protease 6 (Homo sapiens, UniProt Q9GZR1); format: functional
T6 sequence (Q9GZR1 whole entry): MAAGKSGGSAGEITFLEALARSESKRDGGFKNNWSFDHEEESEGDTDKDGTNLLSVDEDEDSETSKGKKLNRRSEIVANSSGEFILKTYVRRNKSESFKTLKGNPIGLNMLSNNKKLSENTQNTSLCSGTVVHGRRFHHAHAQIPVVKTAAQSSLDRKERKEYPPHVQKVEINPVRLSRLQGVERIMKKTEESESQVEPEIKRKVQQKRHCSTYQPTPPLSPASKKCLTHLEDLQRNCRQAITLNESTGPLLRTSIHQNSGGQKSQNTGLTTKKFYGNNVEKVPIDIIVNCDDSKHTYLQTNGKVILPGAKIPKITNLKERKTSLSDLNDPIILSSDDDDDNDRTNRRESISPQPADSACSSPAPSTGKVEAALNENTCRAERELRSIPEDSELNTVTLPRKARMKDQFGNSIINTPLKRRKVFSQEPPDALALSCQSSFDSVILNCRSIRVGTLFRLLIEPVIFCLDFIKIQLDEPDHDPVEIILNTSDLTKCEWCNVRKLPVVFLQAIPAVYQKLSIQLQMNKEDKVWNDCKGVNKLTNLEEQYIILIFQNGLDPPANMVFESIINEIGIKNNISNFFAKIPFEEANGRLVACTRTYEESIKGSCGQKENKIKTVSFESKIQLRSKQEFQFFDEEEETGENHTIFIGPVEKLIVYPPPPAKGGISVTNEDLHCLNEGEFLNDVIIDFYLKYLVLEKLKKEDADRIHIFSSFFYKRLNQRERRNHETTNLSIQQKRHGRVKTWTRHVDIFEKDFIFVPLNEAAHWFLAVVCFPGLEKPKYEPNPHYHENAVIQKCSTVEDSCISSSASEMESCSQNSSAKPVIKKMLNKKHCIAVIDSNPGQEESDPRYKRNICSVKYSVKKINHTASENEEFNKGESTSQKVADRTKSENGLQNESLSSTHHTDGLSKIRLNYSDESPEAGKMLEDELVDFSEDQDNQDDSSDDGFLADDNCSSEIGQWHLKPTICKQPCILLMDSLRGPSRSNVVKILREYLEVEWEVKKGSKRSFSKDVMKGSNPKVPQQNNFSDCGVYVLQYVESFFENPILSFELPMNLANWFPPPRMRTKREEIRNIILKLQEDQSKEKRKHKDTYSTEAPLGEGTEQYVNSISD

[17] = biological target: T7, Sentrin-specific protease 8 (Homo sapiens, UniProt Q96LD8); format: functional;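 note: luminescence read-out of SENP8 inhibition, dose-response confirmation following an ultra-high-throughput screen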
T7 sequence (Q96LD8 whole entry): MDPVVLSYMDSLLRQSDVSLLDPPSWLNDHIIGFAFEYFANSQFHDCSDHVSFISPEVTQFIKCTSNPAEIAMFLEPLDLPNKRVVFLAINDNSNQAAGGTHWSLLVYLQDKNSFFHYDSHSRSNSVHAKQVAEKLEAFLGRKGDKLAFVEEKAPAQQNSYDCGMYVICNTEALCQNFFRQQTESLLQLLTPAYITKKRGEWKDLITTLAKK

[18] = biological target: T4, Caspase-3; test: SAR Analysis of small molecule inhibitors of Sentrin-specific proteases (SENPs) using a Caspase-3 Selectivity assay. [Related pubchem assays (depositor defined):AID2540, AID2599, AID434973, AID489001]; format: functional
[19] = biological target: T6, Sentrin-specific protease 6; test: SAR Analysis of small molecule inhibitors of Sentrin-specific protease 6 (SENP6) using a Luminescent assay. [Related pubchem assays (depositor defined):AID2582, AID2599]; format: functional
[20] = biological target: T5, Sentrin-specific protease 7; test: SENP7 protease inhibitors, SAR follow-up, biochemical, luminescence (AID 504497); format: functional

Chain of Cytochrome P450 2D6 (P10635 whole entry): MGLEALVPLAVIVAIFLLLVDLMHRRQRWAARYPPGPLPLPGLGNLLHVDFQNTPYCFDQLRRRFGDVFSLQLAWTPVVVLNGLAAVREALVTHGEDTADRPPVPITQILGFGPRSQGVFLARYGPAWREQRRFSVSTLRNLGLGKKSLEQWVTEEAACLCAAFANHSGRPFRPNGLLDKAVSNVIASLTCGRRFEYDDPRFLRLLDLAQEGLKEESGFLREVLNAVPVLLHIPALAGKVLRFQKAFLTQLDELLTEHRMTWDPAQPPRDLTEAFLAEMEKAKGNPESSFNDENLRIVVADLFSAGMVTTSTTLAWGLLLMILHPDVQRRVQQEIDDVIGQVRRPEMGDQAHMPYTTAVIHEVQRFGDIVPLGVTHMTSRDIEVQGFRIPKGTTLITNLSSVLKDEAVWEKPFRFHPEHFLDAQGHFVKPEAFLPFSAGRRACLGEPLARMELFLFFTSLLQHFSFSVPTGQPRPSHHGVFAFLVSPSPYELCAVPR
Chain of Beta-galactosidase (Q8VNN2 whole entry): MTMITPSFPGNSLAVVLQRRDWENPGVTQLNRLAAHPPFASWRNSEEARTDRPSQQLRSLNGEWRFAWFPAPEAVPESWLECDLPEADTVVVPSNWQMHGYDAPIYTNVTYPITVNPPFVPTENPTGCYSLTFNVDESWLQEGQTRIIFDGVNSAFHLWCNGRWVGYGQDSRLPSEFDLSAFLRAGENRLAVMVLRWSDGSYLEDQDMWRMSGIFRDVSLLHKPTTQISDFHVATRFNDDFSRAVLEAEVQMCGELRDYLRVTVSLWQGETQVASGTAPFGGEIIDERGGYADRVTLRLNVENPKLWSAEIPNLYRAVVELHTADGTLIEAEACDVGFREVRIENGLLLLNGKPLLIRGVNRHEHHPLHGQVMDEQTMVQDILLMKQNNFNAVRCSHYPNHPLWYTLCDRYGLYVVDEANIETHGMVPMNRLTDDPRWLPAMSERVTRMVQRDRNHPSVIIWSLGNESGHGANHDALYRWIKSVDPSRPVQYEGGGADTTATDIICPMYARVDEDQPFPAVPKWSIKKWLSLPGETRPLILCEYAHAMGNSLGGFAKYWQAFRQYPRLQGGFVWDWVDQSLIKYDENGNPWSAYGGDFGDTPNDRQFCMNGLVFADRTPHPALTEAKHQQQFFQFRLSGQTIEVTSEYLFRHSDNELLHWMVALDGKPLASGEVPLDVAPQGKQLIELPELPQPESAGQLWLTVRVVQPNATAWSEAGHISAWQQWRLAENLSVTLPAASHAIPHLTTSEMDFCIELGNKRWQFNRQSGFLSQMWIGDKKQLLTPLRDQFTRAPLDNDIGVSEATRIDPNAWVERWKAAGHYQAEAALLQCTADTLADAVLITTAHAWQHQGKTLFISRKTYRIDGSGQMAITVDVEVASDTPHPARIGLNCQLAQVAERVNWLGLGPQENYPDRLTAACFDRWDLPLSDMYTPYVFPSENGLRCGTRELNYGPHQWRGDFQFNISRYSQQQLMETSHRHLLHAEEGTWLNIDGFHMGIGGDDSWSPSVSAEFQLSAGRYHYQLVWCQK

For `CN(C)CCN(Cc1ccco1)C(=O)c1cc2c(Cl)nc3ccccc3c2s1`, the EC50 [1] was > 40 µM (inactive), the EC50 [2] was < 0.1 µM (active) and the IC50 [3] was 33.8 µM (not active). The EC50 [4] was 9.5 µM (active) and the EC50 [5] was 0.115 µM (active).
With `Nc1ccc(N=Nc2ccccc2O)c(N)c1` the CC50 [6] was > 40 µM (active).
In the case of `O=C(N/N=C1\CCC\C1=C(/O)C(F)(F)F)c1cccc(O)c1`, the CC50 [6] is reported as 32.2 µM (active).
In the case of `COC(=O)c1c(C(=O)OC)c(-c2ccc(F)cc2)n2c1C[S+]([O-])C2` (stereo not given), the AC50 [7] is reported as 10.3 µM (active).
For `CCOC(=O)c1ccc(-[n+]2c(-c3ccccc3)cc(-c3ccccc3)cc2-c2ccccc2)cc1.[O-][Cl+3]([O-])([O-])[O-]`, the EC50 [2] was < 0.1 µM (active), the EC50 [4] was > 60 µM (not active) and the AC50 [8] was 2.02 µM (active). The EC50 [5] was 0.047 µM (active).
For `CCOC(=O)c1ccc(N2C(=O)c3[nH]nc(C)c3C2c2ccc(OC)cc2OC)cc1` (stereo not given), the CC50 [9] was > 40 µM (active).
In the case of `CCCn1nnnc1NC(=O)COc1ccc(Cl)cc1C`, the CC50 [6] is reported as 34.5 µM (active) and the AC50 [10] is reported as 25.1 µM (inconclusive).
For `COC(=O)C[C@@H]1CC[C@@H]2[C@H](COC[C@@H](O)CN2C(=O)Nc2cccc(F)c2)O1`, the AC50 [7] was 10 µM (active).
For `NC(=O)c1ccc(Oc2cccc3cccnc23)c([N+](=O)[O-])c1`, the AC50 [7] was 2.3 µM (active).
With `CN(C)CCNc1ccc(-c2nn(C)c(=O)c3ccccc23)cc1[N+](=O)[O-]` the EC50 [2] was < 0.1 µM (active), the EC50 [4] was > 60 µM (not active) and the EC50 [5] was 0.062 µM (active).
For `COc1cc(OC)c(OC)cc1CNCCc1ccc(F)cc1`, the EC50 [2] was < 0.1 µM (active), the EC50 [4] was > 60 µM (not active) and the EC50 [5] was 0.055 µM (active).
With `Cc1cccc(C(=O)Nc2scc(-c3ccc(Br)cc3)c2C(=O)O)c1` the EC50 [11] was 2.33 µM (active), the EC50 [12] was > 150 µM (not active) and the EC50 [13] was 8.14 µM (active). The IC50 [14] was 5.21 µM (active), the IC50 [15] was > 100 µM (inactive) and the IC50 [16] was 4.28 µM (active). The IC50 [17] was 3.72 µM (active), the IC50 [18] was 4.89 µM (active) and the IC50 [19] was 3.42 µM (active). The IC50 [20] was 6.38 µM (active).
For `C[C@H](CO)N1C[C@H](C)[C@@H](CN(C)Cc2ccc3c(c2)OCO3)Oc2ccc(NC(=O)Cn3cnnn3)cc2CC1=O`, the AC50 [7] was 13 µM (active).
In the case of `O=C(c1cccc(F)c1)N1CC[C@@H]2[C@H]1c1cc(-c3cccc(F)c3)ccc1N[C@@H]2CO`, the AC50 [7] is reported as 5.94 µM (active).
